# Results from patent US11964935B2, “Gingerol derivative having inhibitory activity against biofilm formation and pharmaceutical composition comprising same as effective ingredient for preventing or treating biofilm-caused infection symptom” (Korea University Research and Business Foundation, Sejong …, priority 2017, dated 2024).
# “Also recorded” adds a separate entry of the source.
# Columns and labels:
# P. aeruginosa = conditions: cited from earlier work
# P. aeruginosa PA14 [1] = assay: Static biofilm formation assay; type: cell-based, Pseudomonas aeruginosa
# Procedure: Overnight culture of P. aeruginosa PA14 (OD595=1.0) was diluted (1:20) with the AB medium (300 mM NaCl, 50 mM MgSO4, 0.2% vitamin-free casamino acids, 10 mM potassium phosphate, 1 mM L-arginine, and 1% glucose, pH 7.5) (1:20) containing with either positive controls or synthesized compounds (0-100 μM). The dilutions were aliquoted into borosilicate bottles, and the bottles were incubated at 37° C. for 24 h without agitation. After that, OD595 of the cell suspension was measured on the VICTOR ×5 multimode plate reader. The biofilm cells attached to the bottle were washed two times with phosphate buffered saline (PBS; 137 mM NaCl, 2.7 mM KCl, 10 mM Na2HPO4, and 2 mM KH2PO4, pH 7.2) and stained with 0.1% crystal violet for […] Next, the stained biofilm cells were eluted with 100% ethyl alcohol, and OD540 was measured on the VICTOR ×5 multimode plate reader. The biofilm formation was quantified by dividing OD540 with OD595.
# P. aeruginosa PA14 [2] = assay: Growth inhibition assay; type: cell-based, Pseudomonas aeruginosa; conditions: 100 μM, 24 h
# Procedure: A 5% dilution of overnight culture of P. aeruginosa PA14 (OD595=1.0) containing either a positive control or the synthesized compound (0-100 μM) was inoculated into wells of a 96-well polystyrene microtiter plate (Sigma-Aldrich). The plate was incubated at 37° C. for 24 h. OD595 of the suspension culture was measured on the VICTOR ×5 multimode plate reader.
# LasR [3] = molecular target: T1, LasR (Pseudomonas aeruginosa, UniProt P25084); assay: LasR reporter gene assay (E. coli reporter strain, luminescence, competition with OdDHL); type: cell-based; conditions: compound 1 μM; compound 1a 0, 0.1, 1, 10 and 100 μM
# T1 construct: expressed in transfected cells; host or cells: E. coli DH5α (printed DHSα) co-transformed with pJN105L and pSC11
# LasR [4] = molecular target: T1, LasR; assay: as above; type: cell-based; conditions: compound 1 μM or 10 μM in the presence of 1 μM OdDHL (compound 1a)
# Procedure: This assay was conducted by modifying a previously reported method. E. coli DHSα co-transformed with two plasmids, pJN105L (LasR expression plasmid) and pSC11 (lasI::lacZ fusion plasmid), was used as a bioassay reporter strain. Overnight culture of the reporter strain with 10 μg/mL gentamicin and 50 μg/mL ampicillin was diluted in the Luria-Bertani (LB) medium (1:100). Then, the reporter strain (optical density at 595 nm [OD595] was 0.3) mixed with either a positive control or the synthesized compound was incubated with OdDHL (Sigma-Aldrich, St. Louis, MO., USA) and 0.4% arabinose (Sigma-Aldrich). After incubation at 37° C. for 1.5 h, OD595 was measured on a VICTOR ×5 multimode plate reader (PerkinElmer, Waltham, Mass., USA). The β-galactosidase activity was determined using a Tropix plus kit (Applied Biosystems, USA), and luminescence was measured on the VICTOR ×5 multimode plate reader. RLU ratio was quantified by dividing luminescence with OD595.
# LasR-binding affinity of the synthesized gingerols (compounds 4-10) with various alkyl chain lengths was determined by measuring luminescence of an E. coli reporter strain. The reporter strain carried two plasmids, pJN105L (LasR expression plasmid) (Lee, J. H.; Lequette, Y.; Greenberg, E. P. Activity of purified QscR, a Pseudomonas aeruginosa orphan quorum-sensing transcription factor. Mol. Microbiol. 2006, 59, 602609.) and pSC11 (las1::lacZ fusion plasmid) (Chugani, S. A.; Whiteley, M.; Lee, K. M.; D'Argenio, D.; Manoil, C.; Greenberg, E. P. QscR, a modulator of quorum-sensing signal synthesis and virulence in Pseudomonas aeruginosa. Proc. Natl. Acad. Sci. U.S.A. 2001, 98, 27522757.), which enabled assay of competitive binding of OdDHL with each gingerol derivative 4-10. Antagonistic activities of the synthesized compounds at 1 μM or 10 μM were determined by measuring luminescence in the presence of 1 μM OdDHL (compound 1a) and presented as relative luminescence unit (RLU) ratio. Three compounds (compounds 1b, 1c, and 1d) served as positive controls. […] Just as the LasR inhibition, inhibition of biofilm formation also strengthened as the carbon chain was extended at 10 μM ((B) of FIG. 3). However, inhibition of biofilm formation decreased with 9-gingerol (compound 9) and 10-gingerol (compound 10) at 100 μM ((C) of FIG. 3) because of increased bacterial growth inhibition. […] This effect may be due to the fact that compounds 9 and 10 act as a surfactant, which inhibits bacterial growth. Agonistic activities of compounds 4-10 in an E. coli reporter assay system in the absence of OdDHL were next examined.
# P. aeruginosa PA14 [5] = assay: Dynamic biofilm formation assay (drip-flow reactor, CLSM); type: cell-based, Pseudomonas aeruginosa; conditions: for Biofilm thickness / Biofilm volume: 10 μM compound, Comstat2; for Biofilm thickness / Biofilm volume / Biofilm formation in CLSM images, in words: 48 h drip-flow reactor; for Biofilm formation in CLSM images, in words: compared with DMSO or compound 1c
# Procedure: Glass slides were dipped into a Petri dish containing 2 mL of a P. aeruginosa PA14 suspension (OD595=1.0) and 18 mL of the AB medium, followed by incubation at 37° C. for 24 h to let the cells adhere to the slides. The slides were then inserted into a drip-flow reactor (DFR-110, BioSurface, Mont., USA). The AB medium with either a positive control or the synthesized compound (0-10 μM) was fed into the reactor continuously via a peristaltic pump (Masterflex C/L tubing pumps, Cole-Parmer, IL, USA) at 0.3 mL/min After operation of the reactor at 37° C. for 48 h, the cells on the slides were washed two times with PBS. The biofilm cells were stained with fluorescein isothiocyanate-labeled type IV ConA (Sigma-Aldrich) and SYPRO Ruby (Ruby, Invitrogen, Carlsbad, CA, USA) for 15 min, respectively. CLSM images were captured via a 20× objective lens (W N-Achroplan 20×/0.5 W [DIC] M27) with green fluorescence (ConA, excitation wavelength of 490 nm, emission wavelength of 525 nm) and red fluorescence (Ruby, excitation wavelength of 470 nm, emission wavelength of 618 nm) and were analyzed in the Zen 2011 software (Carl Zeiss, Jena, Germany). For quantification, biofilm volume (μm^3/μm^2) and average thickness (μm) were measured by means of Comstat2 in ImageJ.
# A dynamic biofilm formation assay of compounds 41 and 42 was performed in a drip-flow reactor. Compound 1c served as a positive control, and DMSO served as a negative control. After 48 h drip-flow reactor operation, the biofilm was stained with Ruby and concanavalin A (ConA). Ruby (red) is a reagent for staining protein, and ConA (green) is for carbohydrate of biofilm. As shown in (A) of FIG. 8, the biofilm in the presence of DMSO formed with typical mushroom-like morphology. […] Biofilm volume and thickness with compound 41 were the lowest among the three groups (Table 1).
# T1 sequence (P25084 whole entry): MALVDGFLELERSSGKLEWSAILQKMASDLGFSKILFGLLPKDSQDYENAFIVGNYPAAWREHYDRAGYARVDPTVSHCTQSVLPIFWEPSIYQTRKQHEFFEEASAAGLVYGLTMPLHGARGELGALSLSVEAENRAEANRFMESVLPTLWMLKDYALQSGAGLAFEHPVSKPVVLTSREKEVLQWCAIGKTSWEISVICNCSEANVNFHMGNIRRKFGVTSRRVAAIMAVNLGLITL
Structure (SMILES),"Inhibition of biofilm formation at 100 μM, in words (P. aeruginosa PA14 [1]; 24 h, static)",Bacterial growth inhibition (P. aeruginosa PA14 [2]),"LasR-antagonistic activity / LasR-binding affinity (RLU ratio), in words (LasR [4])",Biofilm thickness (P. aeruginosa PA14 [5]; CLSM) [μm],Biofilm volume (P. aeruginosa PA14 [5]; CLSM) [μm^3/μm^2],"Biofilm formation in CLSM images, in words (P. aeruginosa PA14 [5]; 10 μM)",also measured
"CCCCC[C@H](O)CC(=O)CCc1ccc(O)c(OC)c1 [Compound 1b, (S)-6-gingerol]",–,–,–,–,–,–,Biofilm formation and production of virulence factors (previously demonstrated) (P. aeruginosa; competition with OdDHL for LasR): reduces biofilm formation and production of virulence factors
"O=C1C=C(Br)/C(=C/Br)O1 [Compound 1d, (Z)-4-bromo-5-(bromomethylene)furan-2(5H)-one]",–,–,–,–,–,–,Expression of virulence factors (prior report) (P. aeruginosa; interference with P. aeruginosa QS systems): inhibits the expression of virulence factors
"CCCCCCCCC(O)CC(=O)CCc1ccc(O)c(OC)c1 (stereo not drawn) [Compound 9, 5 -Hydroxy-1-(4-hydroxy-3-methoxyphenyl)tridecan-3-one]",decreased,inhibited bacterial growth significantly,–,–,–,–,–
"CCCCCCCCCC(O)CC(=O)CCc1ccc(O)c(OC)c1 (stereo not drawn) [Compound 10, 5-Hydroxy-1-(4-hydroxy-3-methoxyphenyl)tetradecan-3-one]",decreased,inhibited bacterial growth significantly,–,–,–,–,–
"CCCCCCC[C@@H](O)CC(=O)/C=C/c1ccc(O)c(OC)c1 [Compound 41, (R,E)-5-Hydroxy-1-(4-hydroxy-3-methoxyphenyl)dodec-1-en-3-one]",–,bacterial growth inhibition was not observed,stronger LasR-binding affinity,10.3 ± 0.1,7.4 ± 0.2,relatively thin and sparse; also recorded: inhibited biofilm formation more effectively than compound 1c did,"Inhibition of biofilm formation, in words (P. aeruginosa PA14 [1]; 10 μM, 24 h, static): greater inhibition of biofilm formation; Binding reversibility to LasR (LasR [3]): binds reversibly to LasR; Volume of carbohydrates in biofilm compared to the other groups (P. aeruginosa PA14 [5]; ConA staining, CLSM, 10 μM): 47-74%; Volume of proteins in biofilm compared to the other groups (P. aeruginosa PA14 [5]; Ruby staining, CLSM, 10 μM): 23-56%"
"CCCCCCC[C@@H](O)CC(=O)CCc1ccc(O)c(OC)c1 [Compound 42, (R)-5-Hydroxy-1-(4-hydroxy-3-methoxyphenyl)dodecan-3-one]",–,bacterial growth inhibition was not observed,much stronger LasR-binding affinity than compound 1c,13.9 ± 0.1,9.7 ± 1.1,relatively thin and sparse; also recorded: inhibited biofilm formation more effectively than compound 1c did,"Biofilm formation relative to compound 1c (P. aeruginosa PA14 [1]; static assay, 10 μM, effect of compound 1c set to 100%): 72%"
